Experiments:
[1] = system: subjects with MDD at imminent risk for suicide; assay: SIBAT clinical global judgment of suicide risk ([…]2001); assay type: in vivo, human
From the text: The clinical global judgment of suicide risk (Module 8) summarizes clinician overall judgment of suicide risk as derived from information gathered from the full SIBAT tool. It operates like numerous other CGI-severity scales that have been used in other psychiatric studies. Change in the clinical global judgment of suicide risk is designed to directly identify clinical meaningful changes in suicidal ideation and to permit classification of suicide risk.
The analysis of the change in SIBAT score was based on an ANCOVA model on ranks of change in SIBAT with treatment, antidepressant therapy, and analysis center as factors, and baseline value (unranked) as a covariate. There was a significant difference (two-sided […]) between the two treatment groups when comparing the mean rank of change from baseline at Day 1: 4-hours postdose in favor of esketamine 84 mg See, Table 58. See, FIG. 39. […] This difference was not evident at the Day 25 DB endpoint. See, FIG. 40, which is based on LOCF data and analyzed using Cochran-Mantel-Haenszel test controlling for analysis center and antidepressant therapy.

[2] = system: patients with treatment-resistant depression (TRD); assay: CGI-S (Example 7); assay type: in vivo, human
Description: (§1) Overall illness severity was assessed on the Clinical Global Impression of Severity (CGI-S) scale (Guy, “ECDEU Assessment Manual for Psychopharmacology—Revised (DHEW Publ No ADM 76-338)”, Rockville, Md.: U.S. Department of Health, Education, and Welfare, Public Health Service, Alcohol, Drug Abuse, and Mental Health Administration, NIMH Psychopharmacology Research Branch, Division of Extramural Research Programs; 1976, pp 218-222). Participants assessed their severity of anxiety on the Generalized Anxiety Disorder 7-item (GADS-7) Scale (See, Tables 157 and 158). See, Spitzer, “A brief measure for assessing generalized anxiety disorder—the GAD-7”, Arch. Intern. Med., 2006, 166(10): 1092-1097.

[3] = system: patients with treatment-resistant depression (TRD); assay: GAD-7 (Example 7); assay type: in vivo, human
Description: as §1

patients with TRD = assay: Adverse reactions in SPRAVATO clinical trials (label); assay type: in vivo, human; conditions: up to 4 weeks after cessation of treatment
Description: SPRAVATO was evaluated for safety in 1709 patients diagnosed with treatment resistant depression (TRD) [see Clinical Studies (14.1, 14.2)] from five Phase 3 studies (3 short-term and 2 long-term studies) and one Phase 2 dose-ranging study. Of all SPRAVATO-treated patients in the completed Phase 3 studies, 479 (30%) received at least 6 months of treatment, and 178 (11%) received at least 12 months of treatment.
In short-term studies in adults<65 years old (Study 1 pooled with another 4-week study), the proportion of patients who discontinued treatment because of an adverse reaction was 4.6% in patients who received SPRAVATO plus oral AD compared to 1.4% for patients who received placebo nasal spray plus oral AD. For adults 65 years old, the proportions were 5.6% and 3.1%, respectively. In Study 2, a long-term maintenance study, the discontinuation rates because of an adverse reaction were similar for patients receiving SPRAVATO plus oral AD and placebo nasal spray plus oral AD in the maintenance phase, at 2.6% and 2.1%, respectively.
SPRAVATO can cause nausea and vomiting (Table 7). Most of these events occurred on the day of dosing and resolved the same day, with the median duration not exceeding 1 hour in most subjects across dosing sessions. […]

rat = assay: 2-year rat carcinogenicity study; assay type: in vivo; conditions: once-daily intranasal 4.5, 15 and 45 mg/kg/day; 2 years
rat liver cells = assay: In vivo Comet assay; conditions: intravenously-administered
[4] = system: subjects with MDD at imminent risk for suicide; assay: Study completion/withdrawal, double-blind phase ([…]2001); assay type: in vivo, human; conditions: esketamine 84 mg; all randomized analysis set, N = 36
Description: Of the 68 subjects in the all randomized analysis set, 19 (27.9%) subjects discontinued from the double-blind phase. More subjects in the esketamine 84 mg group discontinued due to adverse events (5 subjects in the esketamine 84 mg group versus 1 subject in the placebo group) whereas more subjects in the placebo group discontinued due to lack of efficacy (4 subjects in the placebo group versus 1 subject in the esketamine 84 mg group).

adult subjects with TRD = conditions: post dose
Description: The MOAA/S was used to measure treatment-emergent sedation, with correlation to levels of sedation defined by the American Society of Anesthesiologists (ASA) continuum. The MOAA/S scores range from 0=no response to painful stimulus (corresponds to ASA continuum for general anesthesia) to 5=readily responds to name spoken in normal tone (awake; corresponds to ASA continuum for minimal sedation).
On each intranasal dosing day, the MOAA/S was performed every 15 minutes from pre-dose to t=+1.5 hours post-dose. If the score was ≤3 at any time during the 1.5 hours post-dose interval, the MOAA/S was performed every 5 minutes until a score of 4 is reached (at which point a frequency of every 15 minutes can be resumed until t=+1.5 hours post dose). […] For subjects with a score of 4, the assessment was repeated every 15 minutes. […]
The Modified Observer's Assessment of Alertness/Sedation (MOAA/S) was used to measure treatment-emergent sedation with correlation to levels of sedation defined by the American Society of Anesthesiologists (ASA) continuum. The MOAA/S scores ranged from 0 (No response to painful stimulus; corresponds to ASA continuum for general anesthesia) to 5 (Readily responds to name spoken in normal tone [awake]; corresponding to ASA continuum for minimal sedation).

[5] = system: subjects with MDD at imminent risk for suicide; conditions: post dose
Description: The CADSS was measured prior to the start of each dose, at 40 minutes, 2 hours, and 4 hours postdose.

subjects with TRD = conditions: post dose
Description: The Clinician Administered Dissociative States Scale (CADSS) was measured prior to the start of each dose, at 40 minutes, and 1.5 hours postdose.

adult female rats = conditions: single intranasal dose; 200-gram rat
[6] = Clinical pharmacokinetics of esketamine (label)
[7] = Period 1, esketamine 28 mg intranasal
[8] = Period 1, esketamine 56 mg intranasal
[9] = Period 1, esketamine 84 mg intranasal
[10] = Period 2, esketamine 28 mg intranasal
[11] = Period 2, esketamine 56 mg intranasal
[12] = Period 2, esketamine 84 mg intranasal
[13] = human, plasma, other: nasal spray

CN[C@]1(c2ccccc2Cl)CCCCC1=O [esketamine, (S)-2-(2-chlorophenyl)-2-(methylamino)cyclohexanone]
SIBAT Clinical Global Judgment of Suicide Risk: change vs placebo ([1]; 84 mg, Day 1: 4-hours postdose and Day 2): statistically superior
SIBAT Clinical Global Judgment of Suicide Risk, Day 1 (DB): 4H, Median (Range) ([1]; esketamine 84 mg, LOCF, ITT, N = 33): 5.0 (0; 6)
SIBAT Clinical Global Judgment of Suicide Risk, Change from Baseline to Day 1 (DB): 4H, Median (Range) ([1]; esketamine 84 mg, LOCF, ITT, N = 33, negative change = improvement): 0.0 (−6; 1)
SIBAT Clinical Global Judgment of Suicide Risk, Day 2 (DB), Median (Range) ([1]; esketamine 84 mg, LOCF, ITT, N = 35): 5.0 (0; 6)
SIBAT Clinical Global Judgment of Suicide Risk, Change from Baseline to Day 2 (DB), Median (Range) ([1]; esketamine 84 mg, LOCF, ITT, N = 35, negative change = improvement): −1.0 (−6; 1)
SIBAT Clinical Global Judgment of Suicide Risk, Baseline (DB), Median (Range) ([1]; esketamine 84 mg, predose Day 1, ITT, N = 35): 6.0 (5; 6)
CGI-S Median (Range) at end point [2, 7]: 4.0 (3, 5)
CGI-S Median Change (Range) [2, 7]: −1.0 (−2, 1)
CGI-S Median (Range) at end point [2, 8]: 4.0 (1, 5)
CGI-S Median Change (Range) [2, 8]: −1.0 (−3, 0)
CGI-S Median (Range) at end point [2, 9]: 4.0 (1, 6)
CGI-S Median Change (Range) [2, 9]: −0.5 (−4, 0)
CGI-S Median (Range) at end point [2, 10]: 4.0 (3, 5)
CGI-S Median Change (Range) [2, 10]: −1.0 (−1, 0)
CGI-S Median (Range) at end point [2, 11]: 5.0 (4, 6)
CGI-S Median Change (Range) [2, 11]: −1.0 (−2, 0)
CGI-S Median (Range) at end point [2, 12]: 4.0 (3, 5)
CGI-S Median Change (Range) [2, 12]: −1.0 (−2, 0)
GAD-7 change from baseline, LS mean (SE) [3, 7]: −1.5 (1.34)
GAD-7 change from baseline, LS mean (SE) [3, 8]: −3.1 (1.34)
GAD-7 change from baseline, LS mean (SE) [3, 9]: −5.1 (1.30)
GAD-7 change from baseline, LS mean (SE) [3, 10]: −1.6 (0.87)
GAD-7 change from baseline, LS mean (SE) [3, 11]: 1.0 (0.98)
GAD-7 change from baseline, LS mean (SE) [3, 12]: −0.9 (1.02)
Withdrawal symptoms (patients with TRD): no withdrawal symptoms
Incidence of tumors (rat): did not increase the incidence of tumors
Genotoxicity (rat liver cells): devoid of genotoxic properties
Withdrawn from double-blind phase: Lack of Efficacy [4]: 1 (2.8%) subjects (%)
Sedation (MOAA/S) resolved by (adult subjects with TRD): ≤ 1.5 h
Dissociative and perceptual change symptoms (CADSS) resolved by [5]: ≤ 2 h
Dissociative/perceptual change symptoms (CADSS) resolved by (subjects with TRD): ≤ 1.5 h
Highest dose equivalent with no findings of neuronal vacuolation in the brain (adult female rats): 45 mg/kg
Time to reach maximum plasma concentration ([6]; after the last nasal spray of a treatment session): 20 to 40 min
Presence in human milk ([6]; human, in vivo): present in human milk
bioavailability ([6]; human, plasma, inhaled or intranasal): ~48%
clearance ([6]; human, plasma, iv): ~1480 mL/min
Inter-subject variability, AUC∞ [6, 13]: 18% to 45
Inter-subject variability, Cmax [6, 13]: 27% to 66
Intra-subject variability, AUC∞ [6, 13]: ~10%
Intra-subject variability, Cmax [6, 13]: approximately 15%
Dose excreted as unchanged drug in urine ([6]; nasal): Less than 1%
Accumulation in plasma ([6]; twice a week administration): No accumulation

Source: patent US11980596B2 (priority 2017, dated 2024)
